The supplement of paper PMC10307832

Tests used:
Assay in all cases: relative viability (nuclei count vs DMSO), 5 days (fraction); higher = more cells survive
ALW-II-49-7 + Linsitinib = compound: Cc1ccc(C(=O)Nc2cccc(C(F)(F)F)c2)cc1Nc1cncc(C(N)=O)c1 [ALW-II-49-7] + C[C@]1(O)C[C@@H](c2nc(-c3ccc4ccc(-c5ccccc5)nc4c3)c3c(N)nccn32)C1 [Linsitinib] (partner 1 µM)
How it was run: (§1)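 One day after seeding in 1536-well plates, lung cancer cell lines were dosed by pin tool. Dosing was either single-drug or a fixed anchor-drug dose plus five library-drug doses (not always all listed) in √10 steps. After 5 days, nuclei were stained in one fix-and-stain step and counted on 4× images, and relative viability is the nuclei count of treated wells over that of vehicle wells, given as the median of duplicate plates.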

XMD13-2 + Vorinostat = compound: C1CC1C(=O)NC2=NNC3=C2C=CC(=C3)C4=CC(=CC=C4)C(=O)NC5CC5 [XMD13-2] + O=C(CCCCCCC(=O)Nc1ccccc1)NO [Vorinostat] (partner 1 µM)
How it was run: as §1

Dasatinib + Pemetrexed = compound: Cc1nc(Nc2ncc(C(=O)Nc3c(C)cccc3Cl)s2)cc(N2CCN(CCO)CC2)n1 [Dasatinib] + Nc1nc2[nH]cc(CCc3ccc(C(=O)N[C@@H](CCC(=O)O)C(=O)O)cc3)c2c(=O)[nH]1 [Pemetrexed] (partner 0.2 µM)
How it was run: as §1

ALW-II-49-7 + Dasatinib = compound: Cc1ccc(C(=O)Nc2cccc(C(F)(F)F)c2)cc1Nc1cncc(C(N)=O)c1 [ALW-II-49-7] + Cc1nc(Nc2ncc(C(=O)Nc3c(C)cccc3Cl)s2)cc(N2CCN(CCO)CC2)n1 [Dasatinib] (partner 0.075 µM)
How it was run: as §1

UMC-11
relative viability (ALW-II-49-7 + Linsitinib; first compound 0.08 µM): 0.989
relative viability (ALW-II-49-7 + Linsitinib; first compound 0.253 µM): 0.902
relative viability (ALW-II-49-7 + Linsitinib; first compound 2.53 µM): 1.12
relative viability (ALW-II-49-7 + Linsitinib; first compound 8 µM): 1.04
relative viability (XMD13-2 + Vorinostat; first compound 0.05 µM): 0.356
relative viability (XMD13-2 + Vorinostat; first compound 0.1581 µM): 0.413
relative viability (XMD13-2 + Vorinostat; first compound 0.5 µM): 0.459
relative viability (XMD13-2 + Vorinostat; first compound 1.581 µM): 0.396
relative viability (XMD13-2 + Vorinostat; first compound 5 µM): 0.318
relative viability (Dasatinib + Pemetrexed; first compound 0.005 µM): 0.736
relative viability (Dasatinib + Pemetrexed; first compound 0.01581 µM): 0.656
relative viability (Dasatinib + Pemetrexed; first compound 0.05 µM): 0.593
relative viability (Dasatinib + Pemetrexed; first compound 0.1581 µM): 0.469
relative viability (Dasatinib + Pemetrexed; first compound 0.5 µM): 0.391
relative viability (ALW-II-49-7 + Dasatinib; first compound 0.08 µM): 0.428
relative viability (ALW-II-49-7 + Dasatinib; first compound 0.253 µM): 0.453
relative viability (ALW-II-49-7 + Dasatinib; first compound 0.8 µM): 0.473
relative viability (ALW-II-49-7 + Dasatinib; first compound 2.53 µM): 0.456
relative viability (ALW-II-49-7 + Dasatinib; first compound 8 µM): 0.519
